Patent US11964941B2, “5-Bromo-indirubins” (City of Hope, priority 2014, dated 2024)

Columns and labels:
A2058 melanoma cells = experiment: MTS cell viability, A2058 melanoma cells; format: cell-based, human; conditions: 48 h, read-out: IC50 for 50% inhibition of viability
Protocol: (§1) MTS assays were performed for cell viability. Human cancer cells were seeded in 96-well plates (2500 cells/well for solid tumors, 5000 cells/well for blood tumors), incubated overnight at 37 C in 5% CO2, and exposed to 5IN-1NH1 or 5IN-1NH1s in a dose-dependent manner for 48 h. See FIGS. 1A-1B, 2A-2B, 3, 4A-4B, and 6A-6B. Dimethyl sulfoxide (DMSO) was used as the vehicle control. Viable cell numbers were determined by tetrazolium conversion to its formazan dye and absorbance was measured at 490 nm using an automated ELISA plate reader. Each experiment was performed in quadruplicate. IC50 values were determined using CalcuSyn software (BIOSOFT®, Cambridge GB).

[1] = test system: DU145 prostate cancer cells; experiment: MTS cell viability, DU145 prostate cancer cells; format: cell-based, human; conditions: 48 h, read-out: IC50 for 50% inhibition of viability
Protocol: as §1

A549 lung cancer cells = experiment: MTS cell viability, A549 lung cancer cells; format: cell-based, human; conditions: 48 h, read-out: IC50 for 50% inhibition of viability
Protocol: as §1

[2] = test system: MDA-MB-231 breast cancer cells; experiment: MTS cell viability, MDA-MB-231 breast cancer cells; format: cell-based, human; conditions: 48 h, read-out: IC50 for 50% inhibition of viability
Protocol: as §1

[3] = test system: SKOV3 ovarian cancer cells; experiment: MTS cell viability, SKOV3 ovarian cancer cells; format: cell-based, human; conditions: 48 h, read-out: IC50 for 50% inhibition of viability
Protocol: as §1

MV4-11 AML cells = experiment: MTS cell viability, MV4-11 AML cells (FLT3-ITD); format: cell-based, human; conditions: 48 h, read-out: IC50 for 50% inhibition of viability
Protocol: as §1
(§2) Compound (1289) inhibits viabilities of MV4-11 and MOLM13 AML cells that harbor an internal tandem duplication (ITD) mutation. MTS assays were performed for cell viability. Human MV4-11 and MOLM13 AML cells (5000/well) were seeded in 96-well plates, incubated overnight at 37° C. in 5% CO2, and exposed to compound (1289) in a dose-dependent manner for 48 h. Dimethyl sulfoxide (DMSO) was used as the vehicle control. Viable cell numbers were determined by tetrazolium conversion to its formazan dye and absorbance was measured at 490 nm using an automated ELISA plate reader. Each experiment was performed in quadruplicate. IC50 values were determined using CalcuSyn software.

MOLM13 AML cells = experiment: MTS cell viability, MOLM13 AML cells (FLT3-ITD); format: cell-based, human; conditions: 48 h, read-out: IC50 for 50% inhibition of viability
Protocol: as §1, §2

KCL22 CML cells = experiment: MTS cell viability, KCL22 CML cells; format: cell-based, human; conditions: 48 h, read-out: IC50 for 50% inhibition of viability
Protocol: as §1

[4] = test system: T315I ABL1 mutant KCL22 CML cells; experiment: MTS cell viability, T315I ABL1 mutant KCL22 CML cells; format: cell-based, human; conditions: T315I ABL1 mutant KCL22 CML cells, MTS, 48 h; read-out: IC50 for 50% inhibition of viability
Protocol: as §1
Human DU145 prostate cancer, A2058 melanoma, SKOV3 ovarian cancer and T315I ABL1 mutant KCL22 CML cells were seeded in 96-well plates (2500 cells/well for solid tumors, 5000 cells/well for blood tumors), incubated overnight at 37° C. in 5% CO2, and exposed to 5IN-6NC1, 5IN-1NH1, 5IN-6NNC6, or 5IN-6NNC7 in a dose-dependent manner for 48 h. Dimethyl sulfoxide (DMSO) was used as the vehicle control. Viable cell numbers were determined by tetrazolium conversion to its formazan dye and absorbance was measured at 490 nm using an automated ELISA plate reader. Each experiment was performed in quadruplicate. IC50 values were determined using CalcuSyn software.

FLT3 [5] = target: FLT3 (Homo sapiens, UniProt P36888); experiment: In vitro kinase assay, recombinant FLT3; format: biochemical; conditions: recombinant FLT3, 33P-ATP, 120 min
Protocol: (§3) The kinase assays were performed with recombinant class III receptor tyrosine kinase family proteins. Briefly, proteins, freshly prepared substrates and ^33P-ATP (specific activity 0.01 μCi/μl final) were mixed in reaction buffer (20 mM HEPES pH 7.5, 10 mM MgCl2, 1 mM EGTA, 0.02% Brij35, 0.02 mg/ml BSA, 0.1 mM Na3VO4, 2 mM DTT) in the presence of DMSO as control or 5IN-1NH1s. The mixtures were reacted for 120 min at room temperature. Samples were transferred onto P81 ion exchange paper and filters were extensively washed with 0.75% phosphoric acid. The radioactivities were monitored. IC50 values were determined using GraphPad Prism software.
as §3, with “Kinase” for “The kinase”, “FLT3, mutated FLT3-ITD and D835I mutant FLT3 kinases.” for “class III receptor tyrosine kinase family proteins.”, “compound (1289).” for “5IN-1NH1s.”

FLT3 [6] = experiment: In vitro kinase assay, recombinant FLT3; format: biochemical; conditions: recombinant class III receptor tyrosine kinase family proteins
Protocol: as §3
as §3, with “Kinase” for “The kinase”, “FLT3, mutated FLT3-ITD and D835I mutant FLT3 kinases.” for “class III receptor tyrosine kinase family proteins.”, “compound (1289).” for “5IN-1NH1s.”

FLT3 (D835Y) = FLT3 (D835Y) (Homo sapiens, UniProt P36888, D835Y); experiment: In vitro kinase assay, recombinant FLT3 (D835Y); format: biochemical; conditions: 33P-ATP, 120 min
Protocol: as §3
as §3, with “Kinase” for “The kinase”, “FLT3, mutated FLT3-ITD and D835I mutant FLT3 kinases.” for “class III receptor tyrosine kinase family proteins.”, “compound (1289).” for “5IN-1NH1s.”

FLT3 (ITD) = FLT3 (ITD) (Homo sapiens, UniProt P36888); experiment: In vitro kinase assay, recombinant FLT3 (ITD); format: biochemical; conditions: 33P-ATP, 120 min
Protocol: as §3
as §3, with “Kinase” for “The kinase”, “FLT3, mutated FLT3-ITD and D835I mutant FLT3 kinases.” for “class III receptor tyrosine kinase family proteins.”, “compound (1289).” for “5IN-1NH1s.”

c-KIT = c-KIT (Homo sapiens, UniProt P10721); experiment: In vitro kinase assay, recombinant c-KIT; format: biochemical; conditions: 33P-ATP, 120 min
Protocol: (§4) Compound (1289) inhibits activities of FMS, PDGFR α, PDGFR β and c-KIT in vitro. The kinase assays were performed with recombinant FMS, PDGFR α, PDGFR β and c-KIT proteins. Briefly, proteins, freshly prepared substrates and ^33P-ATP (specific activity 0.01 μCi/μl final) were mixed in reaction buffer (20 mM HEPES pH 7.5, 10 mM MgCl2, 1 mM EGTA, 0.02% Brij35, 0.02 mg/ml BSA, 0.1 mM Na3VO4, 2 mM DTT) in the presence of DMSO as control or compound (1289). The mixtures were reacted for 120 min at room temperature. Samples were transferred onto P81 ion exchange paper and filters were extensively washed with 0.75% phosphoric acid. The radioactivities were monitored.
as §3

FMS = FMS (Homo sapiens, UniProt P07333); experiment: In vitro kinase assay, recombinant FMS; format: biochemical; conditions: 33P-ATP, 120 min
Protocol: as §4, §3

PDGFR α = PDGFR α (Homo sapiens, UniProt P16234); experiment: In vitro kinase assay, recombinant PDGFR α; format: biochemical; conditions: 33P-ATP, 120 min
Protocol: as §4, §3

PDGFR β = PDGFR β (Homo sapiens, UniProt P09619); experiment: In vitro kinase assay, recombinant PDGFR β; format: biochemical; conditions: 33P-ATP, 120 min
Protocol: as §4, §3

ABL1 = ABL1 (Homo sapiens, UniProt P00519); experiment: Kinase profiling in vitro, ABL1; format: biochemical; conditions: recombinant ABL1, 33P-ATP, 120 min
Protocol: as §3, with “recombinant” for “recombinant class III receptor tyrosine kinase family”

ABL1 (T315I) = ABL1 (T315I) (Homo sapiens, UniProt P00519, T315I); experiment: Kinase profiling in vitro, ABL1 (T315I); format: biochemical; conditions: recombinant ABL1 (T315I), 33P-ATP, 120 min
Protocol: as §3, with “recombinant” for “recombinant class III receptor tyrosine kinase family”

AKT1 = AKT1 (Homo sapiens, UniProt P31749); experiment: Kinase profiling in vitro, AKT1; format: biochemical; conditions: recombinant AKT1, 33P-ATP, 120 min
Protocol: as §3, with “recombinant” for “recombinant class III receptor tyrosine kinase family”

Aurora A = Aurora A (Homo sapiens, UniProt O14965); experiment: Kinase profiling in vitro, Aurora A; format: biochemical; conditions: recombinant Aurora A, 33P-ATP, 120 min
Protocol: as §3, with “recombinant” for “recombinant class III receptor tyrosine kinase family”

BRAF = BRAF (Homo sapiens, UniProt P15056); experiment: Kinase profiling in vitro, BRAF; format: biochemical; conditions: recombinant BRAF, 33P-ATP, 120 min
Protocol: as §3, with “recombinant” for “recombinant class III receptor tyrosine kinase family”

c-Src = c-Src (Homo sapiens, UniProt P12931); experiment: Kinase profiling in vitro, c-Src; format: biochemical; conditions: recombinant c-Src, 33P-ATP, 120 min
Protocol: as §3, with “recombinant” for “recombinant class III receptor tyrosine kinase family”

CDK2/cyclin A = CDK2/cyclin A (Homo sapiens, UniProt P24941); experiment: Kinase profiling in vitro, CDK2/cyclin A; format: biochemical; conditions: recombinant CDK2/cyclin A, 33P-ATP, 120 min
Protocol: as §3, with “recombinant” for “recombinant class III receptor tyrosine kinase family”

GSK3β = GSK3β (Homo sapiens, UniProt P49841); experiment: Kinase profiling in vitro, GSK3β; format: biochemical; conditions: recombinant GSK3β, 33P-ATP, 120 min
Protocol: as §3, with “recombinant” for “recombinant class III receptor tyrosine kinase family”

IGF1R = IGF1R (Homo sapiens, UniProt P08069); experiment: Kinase profiling in vitro, IGF1R; format: biochemical; conditions: recombinant IGF1R, 33P-ATP, 120 min
Protocol: as §3, with “recombinant” for “recombinant class III receptor tyrosine kinase family”

JAK2 = JAK2 (Homo sapiens, UniProt O60674); experiment: Kinase profiling in vitro, JAK2; format: biochemical; conditions: recombinant JAK2, 33P-ATP, 120 min
Protocol: as §3, with “recombinant” for “recombinant class III receptor tyrosine kinase family”

KDR/vEGFR2 = KDR/vEGFR2 (Homo sapiens, UniProt P35968); experiment: Kinase profiling in vitro, KDR/vEGFR2; format: biochemical; conditions: recombinant KDR/vEGFR2, 33P-ATP, 120 min
Protocol: as §3, with “recombinant” for “recombinant class III receptor tyrosine kinase family”

Sequence of KDR/vEGFR2 (P35968 20-1356): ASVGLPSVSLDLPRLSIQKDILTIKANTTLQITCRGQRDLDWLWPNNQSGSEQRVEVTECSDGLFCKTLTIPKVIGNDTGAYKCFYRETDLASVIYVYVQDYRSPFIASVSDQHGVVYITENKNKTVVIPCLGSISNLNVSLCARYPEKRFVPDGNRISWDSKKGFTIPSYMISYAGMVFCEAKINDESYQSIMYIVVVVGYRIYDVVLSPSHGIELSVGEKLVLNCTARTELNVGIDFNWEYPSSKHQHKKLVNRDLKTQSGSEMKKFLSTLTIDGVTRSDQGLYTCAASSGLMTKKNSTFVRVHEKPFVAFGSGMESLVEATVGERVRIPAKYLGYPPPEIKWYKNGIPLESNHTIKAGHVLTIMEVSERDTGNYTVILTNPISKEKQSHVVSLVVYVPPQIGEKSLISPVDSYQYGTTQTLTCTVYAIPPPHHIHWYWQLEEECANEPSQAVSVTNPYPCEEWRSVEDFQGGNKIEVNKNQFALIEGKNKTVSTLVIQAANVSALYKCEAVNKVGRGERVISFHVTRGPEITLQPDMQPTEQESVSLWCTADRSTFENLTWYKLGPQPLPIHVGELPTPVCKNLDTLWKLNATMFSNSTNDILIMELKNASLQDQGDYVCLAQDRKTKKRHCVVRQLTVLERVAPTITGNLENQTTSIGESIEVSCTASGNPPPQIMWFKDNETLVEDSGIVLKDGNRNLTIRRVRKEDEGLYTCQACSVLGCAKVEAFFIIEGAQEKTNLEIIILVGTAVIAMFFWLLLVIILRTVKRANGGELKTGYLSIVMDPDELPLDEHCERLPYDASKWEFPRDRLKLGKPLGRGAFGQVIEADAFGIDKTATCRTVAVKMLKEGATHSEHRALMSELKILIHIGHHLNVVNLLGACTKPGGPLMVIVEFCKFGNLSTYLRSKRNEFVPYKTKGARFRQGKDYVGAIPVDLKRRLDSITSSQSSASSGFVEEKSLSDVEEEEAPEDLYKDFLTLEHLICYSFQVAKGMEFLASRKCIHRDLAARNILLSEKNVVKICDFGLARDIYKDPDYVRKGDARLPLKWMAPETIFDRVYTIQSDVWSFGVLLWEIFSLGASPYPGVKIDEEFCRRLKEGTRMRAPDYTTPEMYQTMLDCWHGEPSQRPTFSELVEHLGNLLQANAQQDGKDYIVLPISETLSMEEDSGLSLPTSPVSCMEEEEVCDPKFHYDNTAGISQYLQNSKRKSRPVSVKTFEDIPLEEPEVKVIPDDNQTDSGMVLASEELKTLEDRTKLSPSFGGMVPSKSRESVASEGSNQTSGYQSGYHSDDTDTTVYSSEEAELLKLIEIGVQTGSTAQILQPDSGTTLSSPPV
Sequence of IGF1R (P08069 31-1367, species assumed): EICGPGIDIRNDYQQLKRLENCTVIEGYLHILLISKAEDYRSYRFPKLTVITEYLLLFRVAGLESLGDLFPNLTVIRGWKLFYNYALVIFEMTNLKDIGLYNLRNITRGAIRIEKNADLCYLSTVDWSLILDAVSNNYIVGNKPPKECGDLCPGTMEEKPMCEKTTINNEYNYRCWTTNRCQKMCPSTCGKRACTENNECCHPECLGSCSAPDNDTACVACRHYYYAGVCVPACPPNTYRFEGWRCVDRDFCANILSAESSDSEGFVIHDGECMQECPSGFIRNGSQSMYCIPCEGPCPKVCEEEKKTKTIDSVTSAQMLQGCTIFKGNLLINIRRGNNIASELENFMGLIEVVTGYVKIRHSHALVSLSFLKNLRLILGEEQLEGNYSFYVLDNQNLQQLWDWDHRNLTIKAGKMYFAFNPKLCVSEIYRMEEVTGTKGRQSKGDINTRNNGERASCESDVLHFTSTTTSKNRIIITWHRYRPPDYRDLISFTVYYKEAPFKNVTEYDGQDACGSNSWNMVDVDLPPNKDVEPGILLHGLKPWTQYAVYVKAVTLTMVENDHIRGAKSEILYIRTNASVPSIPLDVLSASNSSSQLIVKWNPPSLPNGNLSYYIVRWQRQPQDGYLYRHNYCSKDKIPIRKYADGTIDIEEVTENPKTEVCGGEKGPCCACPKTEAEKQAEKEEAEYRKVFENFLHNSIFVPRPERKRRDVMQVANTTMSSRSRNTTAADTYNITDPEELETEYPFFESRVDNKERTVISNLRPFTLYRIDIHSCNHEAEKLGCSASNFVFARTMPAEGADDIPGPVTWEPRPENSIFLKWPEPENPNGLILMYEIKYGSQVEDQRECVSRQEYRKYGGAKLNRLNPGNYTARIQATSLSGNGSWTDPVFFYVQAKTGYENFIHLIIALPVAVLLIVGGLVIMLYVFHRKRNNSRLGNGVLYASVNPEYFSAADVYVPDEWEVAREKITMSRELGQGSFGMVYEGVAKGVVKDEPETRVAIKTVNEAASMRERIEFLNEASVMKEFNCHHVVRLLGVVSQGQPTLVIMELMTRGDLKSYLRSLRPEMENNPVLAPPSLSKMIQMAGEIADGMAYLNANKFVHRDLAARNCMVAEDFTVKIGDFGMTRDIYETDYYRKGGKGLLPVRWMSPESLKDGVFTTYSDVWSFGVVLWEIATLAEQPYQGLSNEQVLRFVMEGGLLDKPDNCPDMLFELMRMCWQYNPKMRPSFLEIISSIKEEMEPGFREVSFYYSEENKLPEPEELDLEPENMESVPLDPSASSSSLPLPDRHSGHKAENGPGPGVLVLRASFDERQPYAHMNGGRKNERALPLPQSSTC
Sequence of c-KIT (P10721 26-976): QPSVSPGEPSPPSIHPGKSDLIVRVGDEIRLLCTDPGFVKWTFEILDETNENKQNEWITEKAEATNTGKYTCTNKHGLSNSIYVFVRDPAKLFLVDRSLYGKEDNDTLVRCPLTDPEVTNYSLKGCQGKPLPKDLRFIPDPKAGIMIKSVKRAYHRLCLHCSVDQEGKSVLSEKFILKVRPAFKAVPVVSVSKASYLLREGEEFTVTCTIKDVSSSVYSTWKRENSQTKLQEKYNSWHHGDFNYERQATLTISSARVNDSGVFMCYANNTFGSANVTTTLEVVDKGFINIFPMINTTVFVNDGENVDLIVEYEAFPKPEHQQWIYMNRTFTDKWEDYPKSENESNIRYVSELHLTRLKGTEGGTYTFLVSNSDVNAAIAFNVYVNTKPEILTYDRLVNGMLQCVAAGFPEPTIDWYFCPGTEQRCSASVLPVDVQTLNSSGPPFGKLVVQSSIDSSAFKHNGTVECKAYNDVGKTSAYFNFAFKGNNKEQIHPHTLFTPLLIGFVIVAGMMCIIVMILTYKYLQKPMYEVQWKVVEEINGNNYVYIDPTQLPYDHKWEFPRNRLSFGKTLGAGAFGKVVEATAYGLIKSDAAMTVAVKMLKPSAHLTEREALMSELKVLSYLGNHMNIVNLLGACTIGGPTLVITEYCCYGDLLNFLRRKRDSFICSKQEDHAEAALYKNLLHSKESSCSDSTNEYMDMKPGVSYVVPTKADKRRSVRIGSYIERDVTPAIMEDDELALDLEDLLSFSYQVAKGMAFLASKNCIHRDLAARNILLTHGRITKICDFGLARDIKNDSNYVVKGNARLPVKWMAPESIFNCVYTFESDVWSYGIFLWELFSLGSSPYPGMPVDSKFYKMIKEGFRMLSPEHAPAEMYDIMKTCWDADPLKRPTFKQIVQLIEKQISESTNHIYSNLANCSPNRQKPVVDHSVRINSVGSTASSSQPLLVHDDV
Sequence of Aurora A (O14965 whole entry): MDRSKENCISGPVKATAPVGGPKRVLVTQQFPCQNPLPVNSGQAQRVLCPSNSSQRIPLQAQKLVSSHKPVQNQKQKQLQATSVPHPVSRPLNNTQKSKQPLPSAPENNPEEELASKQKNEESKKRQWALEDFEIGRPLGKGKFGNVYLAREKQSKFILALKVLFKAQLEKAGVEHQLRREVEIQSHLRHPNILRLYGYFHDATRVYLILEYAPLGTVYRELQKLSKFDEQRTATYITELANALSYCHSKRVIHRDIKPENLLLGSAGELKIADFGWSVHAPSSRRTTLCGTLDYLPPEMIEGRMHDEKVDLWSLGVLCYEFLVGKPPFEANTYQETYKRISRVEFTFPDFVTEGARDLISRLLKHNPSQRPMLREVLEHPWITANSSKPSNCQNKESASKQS
Sequence of AKT1 (P31749 whole entry, species assumed): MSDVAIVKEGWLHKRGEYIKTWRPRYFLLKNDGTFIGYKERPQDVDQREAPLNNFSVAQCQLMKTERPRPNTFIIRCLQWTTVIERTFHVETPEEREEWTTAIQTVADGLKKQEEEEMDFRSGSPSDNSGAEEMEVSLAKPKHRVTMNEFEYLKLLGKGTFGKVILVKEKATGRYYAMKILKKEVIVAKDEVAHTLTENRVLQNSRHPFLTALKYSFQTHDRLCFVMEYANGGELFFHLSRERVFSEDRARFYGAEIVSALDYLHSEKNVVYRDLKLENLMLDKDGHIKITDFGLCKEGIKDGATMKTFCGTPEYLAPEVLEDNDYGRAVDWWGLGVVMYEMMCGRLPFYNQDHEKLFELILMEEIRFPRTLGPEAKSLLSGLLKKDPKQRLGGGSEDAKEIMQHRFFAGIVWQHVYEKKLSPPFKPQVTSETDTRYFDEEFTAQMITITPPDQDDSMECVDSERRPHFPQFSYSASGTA
Sequence of GSK3β (P49841 whole entry, species assumed): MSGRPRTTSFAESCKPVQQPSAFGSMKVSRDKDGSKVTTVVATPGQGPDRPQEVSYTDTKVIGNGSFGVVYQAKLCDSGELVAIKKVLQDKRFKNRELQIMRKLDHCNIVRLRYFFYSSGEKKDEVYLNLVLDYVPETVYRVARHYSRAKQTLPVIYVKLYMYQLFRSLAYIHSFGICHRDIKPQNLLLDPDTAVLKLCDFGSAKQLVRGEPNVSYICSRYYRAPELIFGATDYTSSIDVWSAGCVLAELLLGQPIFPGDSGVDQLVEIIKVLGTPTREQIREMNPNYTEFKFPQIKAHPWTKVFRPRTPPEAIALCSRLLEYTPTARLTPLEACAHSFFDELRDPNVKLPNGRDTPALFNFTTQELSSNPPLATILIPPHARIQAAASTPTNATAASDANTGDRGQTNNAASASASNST

IC50 (A2058 melanoma cells): 88.9 nM
IC50 [1]: 44.7 nM
IC50 (A549 lung cancer cells): 46.1 nM
IC50 [2]: 33 nM
IC50 [3]: 169 nM
IC50 (MV4-11 AML cells): 3.7 nM
IC50 (MOLM13 AML cells): 7.5 nM
IC50 (FLT3 [5]): 1.39 nM
selectivity for FLT3 and mutated FLT3 kinases within class III receptor tyrosine kinase family (FLT3 [6]): selectively inhibits
IC50 (FLT3 (D835Y)): < 0.5 nM
IC50 (FLT3 (ITD)): 1.09 nM
IC50 (c-KIT): 321 nM
IC50 (FMS): 16 nM
IC50 (PDGFR α): 72.2 nM
IC50 (PDGFR β): 9.1 nM
IC50 (ABL1): 434 nM
IC50 (ABL1 (T315I)): 3.4 µM
IC50 (AKT1): 327 nM
IC50 (Aurora A): 217 nM
IC50 (BRAF): 7.41 µM
IC50 (c-Src): 13.8 nM
IC50 (CDK2/cyclin A): 1.08 nM
IC50 (GSK3β): 1.18 nM
IC50 (IGF1R): 31.8 nM
IC50 (JAK2): 169 nM
IC50 (KDR/vEGFR2): 245 nM
Structure (SMILES): CNCCO/N=C1/C(=C2/C(=O)Nc3ccc(Br)cc32)Nc2ccccc21 [5IN-1NH1s]
IC50 (KCL22 CML cells): 72.8 nM
IC50 [4]: 52.7 nM
